Measurements published in patent US20250313563A1, “GLYCOGEN SYNTHASE KINASE 3 INHIBITORS AND USES THEREOF” (The Broad Institute, Inc., priority 2022, published 2025).
Read-outs that look alike come from different tables or passages of the source.

Tests used:
[1] = molecular target: GSK3α (GST-full length GSK3α) (Homo sapiens (Human), UniProt P49840); assay: GSK3α TR-FRET kinase assay; type: biochemical; settings: 1 nM GSK3α, 4 μM ATP, 30 minute preincubation, Table 16, read-out: GSK3-A TR-FRET BIOCHEMICAL (TR-FRET)
Method in brief: (§1)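 IC50s came from the normalized 665/615 TR-FRET ratio after Tb-anti-pSer641 antibody and streptavidin-d2 detection of phosphorylated biotin-glycogen synthase peptide (200 nM). ATP was 4 μM for GSK3α, 2 μM for GSK3b, or 1 mM; 1 nM enzyme, 100 min, ambient, pH 7.5, after 30-min compound preincubation.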

[2] = molecular target: GSK3b (GST-full length GSK3b) (Homo sapiens (Human), UniProt P49841); assay: GSK3b TR-FRET kinase assay; type: biochemical; settings: 1 nM GSK3b, 2 μM ATP, 30 minute preincubation, Table 16, read-out: GSK3-B TR-FRET BIOCHEMICAL (TR-FRET)
Method in brief: as §1

Sequence of GSK3α (GST-full length GSK3α) (P49840 whole entry): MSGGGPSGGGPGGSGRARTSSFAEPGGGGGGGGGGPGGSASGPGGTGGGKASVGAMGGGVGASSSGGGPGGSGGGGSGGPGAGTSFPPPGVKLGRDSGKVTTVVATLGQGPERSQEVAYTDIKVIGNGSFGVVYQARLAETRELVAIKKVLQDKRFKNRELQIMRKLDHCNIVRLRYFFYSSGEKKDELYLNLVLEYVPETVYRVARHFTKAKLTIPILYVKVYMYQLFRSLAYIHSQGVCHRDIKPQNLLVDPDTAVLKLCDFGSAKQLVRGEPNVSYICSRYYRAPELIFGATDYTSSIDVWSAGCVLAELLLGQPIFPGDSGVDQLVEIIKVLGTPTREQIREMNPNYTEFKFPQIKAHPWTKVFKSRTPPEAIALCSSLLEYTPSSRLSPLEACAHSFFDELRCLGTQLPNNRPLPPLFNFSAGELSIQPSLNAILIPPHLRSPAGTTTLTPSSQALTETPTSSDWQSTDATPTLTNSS
Sequence of GSK3b (GST-full length GSK3b) (P49841 whole entry): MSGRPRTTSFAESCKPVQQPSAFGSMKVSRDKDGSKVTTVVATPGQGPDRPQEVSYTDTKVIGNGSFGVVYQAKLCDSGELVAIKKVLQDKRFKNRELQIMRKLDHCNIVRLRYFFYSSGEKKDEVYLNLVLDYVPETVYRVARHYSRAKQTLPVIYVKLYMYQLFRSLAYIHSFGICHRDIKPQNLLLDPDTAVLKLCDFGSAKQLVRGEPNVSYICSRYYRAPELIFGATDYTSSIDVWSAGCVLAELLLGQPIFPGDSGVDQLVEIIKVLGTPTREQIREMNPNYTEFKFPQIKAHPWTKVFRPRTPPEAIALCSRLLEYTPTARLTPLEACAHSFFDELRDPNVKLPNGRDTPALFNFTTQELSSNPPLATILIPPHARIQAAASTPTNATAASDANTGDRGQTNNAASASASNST

In the case of `CC1(C)CC(=O)C2=C(C1)Nc1n[nH]cc1[C@@]21CCO[C@H](C(F)(F)F)C1` [Compound 884022], the IC50 [1] is reported as 100 to 1000 nM and the IC50 [2] is reported as 100 to 1000 nM.

For `CC1(C)CC(=O)C2=C(C1)Nc1n[nH]cc1[C@]21CCO[C@H](C(F)(F)F)C1` [Compound 884023], the IC50 ([1]; IC50) was 1000 to 5000 nM and the IC50 ([2]; IC50) was > 5000 nM.

For `CC1(C)CC(=O)C2=C(C1)Nc1n[nH]cc1[C@@]21CCO[C@@H](C(F)(F)F)C1` [Compound 884024], the IC50 ([1]; IC50) was 1000 to 5000 nM and the IC50 ([2]; IC50) was > 5000 nM.

For `CC1(C)CCC2(CC1)C1=C(CC(C)(C)CC1=O)Nc1n[nH]cc12` [Compound 884107], the IC50 [1] was ≤ 100 nM and the IC50 [2] was 100 to 1000 nM.

For `CCN(C(C)=O)c1cccc(C2(CC)C3=C(CC(C)(C)CC3=O)Nc3n[nH]cc32)c1` (centres unmarked) [Compound 884109], the IC50 ([1]; IC50) was ≤ 100 nM and the IC50 ([2]; IC50) was ≤ 100 nM.

With `CCC1(c2cccc(N(Cc3ccccc3)C(C)=O)c2)C2=C(CC(C)(C)CC2=O)Nc2n[nH]cc21` (centres unmarked) [Compound 884110] the IC50 ([1]; IC50) was ≤ 100 nM and the IC50 ([2]; IC50) was ≤ 100 nM.

With `O=C1CCCC2=C1C1(CCOCC1)c1c[nH]nc1N2` [Compound 884111] the IC50 ([1]; IC50) was 1000 to 5000 nM and the IC50 ([2]; IC50) was > 5000 nM.

`CC1CC(=O)C2=C(C1)Nc1n[nH]cc1C21CCOCC1` (centres unmarked) [Compound 884112] gave an IC50 ([1]; IC50) of 100 to 1000 nM and an IC50 ([2]; IC50) of 100 to 1000 nM.

`C[C@@H]1C[C@H](C)C[C@@]2(C1)C1=C(CC(C)(C)CC1=O)Nc1n[nH]cc12` [Compound 884113] showed an IC50 [1] of 100 to 1000 nM and an IC50 [2] of 1000 to 5000 nM.

With `C[C@@H]1C[C@H](C)C[C@]2(C1)C1=C(CC(C)(C)CC1=O)Nc1n[nH]cc12` [Compound 884114] the IC50 [1] was 100 to 1000 nM and the IC50 [2] was 100 to 1000 nM.

In the case of `CCC1(c2cccc(N3CCCCC3)c2)C2=C(CC(C)(C)CC2=O)Nc2n[nH]c(C)c21` (centres unmarked) [Compound 884115], the IC50 ([1]; IC50) is reported as 100 to 1000 nM and the IC50 ([2]; IC50) is reported as 100 to 1000 nM.

For `CO[C@H]1CC[C@]2(CC1)C1=C(CC(C)(C)CC1=O)Nc1n[nH]cc12` [Compound 884119], the IC50 [1] was ≤ 100 nM and the IC50 [2] was 100 to 1000 nM.

For `CO[C@H]1CC[C@@]2(CC1)C1=C(CC(C)(C)CC1=O)Nc1n[nH]cc12` [Compound 884120], the IC50 [1] was 100 to 1000 nM and the IC50 [2] was 100 to 1000 nM.

Work on `CCC1(c2cccc(N3CCCCCC3)c2)C2=C(CC(C)(C)CC2=O)Nc2n[nH]cc21` (centres unmarked) [Compound 885088] yielded an IC50 ([1]; IC50) of 100 to 1000 nM and an IC50 ([2]; IC50) of 100 to 1000 nM.

For `CCC1(c2cccc(N3CCCC3C)c2)C2=C(CC(C)(C)CC2=O)Nc2n[nH]cc21` (centres unmarked) [Compound 885204], the IC50 ([1]; IC50) was ≤ 100 nM and the IC50 ([2]; IC50) was 100 to 1000 nM.

With `CCN(c1cccnc1)c1cccc(C2(CC)C3=C(CC(C)(C)CC3=O)Nc3n[nH]cc32)c1` (centres unmarked) [Compound 885331] the IC50 ([1]; IC50) was ≤ 100 nM and the IC50 ([2]; IC50) was ≤ 100 nM.

`CCC1(c2cccc(N(c3cccnc3)C(C)C)c2)C2=C(CC(C)(C)CC2=O)Nc2n[nH]cc21` (centres unmarked) [Compound 885344] was tested, and the IC50 ([1]; IC50) was ≤ 100 nM and the IC50 ([2]; IC50) was ≤ 100 nM.

In the case of `CCN(c1cccc(C2(CC)C3=C(CC(C)(C)CC3=O)Nc3n[nH]cc32)c1)c1cccnc1C` (centres unmarked) [Compound 885367], the IC50 ([1]; IC50) is reported as 100 to 1000 nM and the IC50 ([2]; IC50) is reported as 1000 to 5000 nM.

`CCC1(c2cccc(N(C)c3cnn(C)c3)c2)C2=C(CC(C)(C)CC2=O)Nc2n[nH]cc21` (centres unmarked) [Compound 885382] was tested, and the IC50 ([1]; IC50) was 100 to 1000 nM and the IC50 ([2]; IC50) was 1000 to 5000 nM.

With `CC[C@]1(c2cccc([C@H]3CCOC3)c2)C2=C(CC(C)(C)CC2=O)Nc2n[nH]cc21` [Compound 889558] the IC50 ([1]; IC50) was ≤ 100 nM and the IC50 ([2]; IC50) was 100 to 1000 nM.

In the case of `CCC1(c2cccc(C3CCOC3)c2)C2=C(CC(C)(C)CC2=O)Nc2n[nH]cc21` (centres unmarked) [Compound 889565], the IC50 ([1]; IC50) is reported as 100 to 1000 nM and the IC50 ([2]; IC50) is reported as 1000 to 5000 nM.

With `CC1(C)CC(=O)C2=C(C1)Nc1n[nH]cc1C21CSC1` [Compound 889567] the IC50 [1] was ≤ 100 nM and the IC50 [2] was 100 to 1000 nM.

With `CC1(C)CC(=O)C2=C(C1)Nc1n[nH]cc1C21CN(C(=O)OCc2ccccc2)C1` [Compound 889568] the IC50 [1] was 100 to 1000 nM and the IC50 [2] was 1000 to 5000 nM.

`CC1(C)CC(=O)C2=C(C1)Nc1n[nH]cc1C21COC1` [Compound 889569] was tested, and the IC50 [1] was 100 to 1000 nM and the IC50 [2] was 100 to 1000 nM.

`CC1(C)CC(=O)C2=C(C1)Nc1n[nH]cc1C2(CO)CO` [Compound 889570] was tested, and the IC50 ([1]; IC50) was > 5000 nM and the IC50 ([2]; IC50) was > 5000 nM.

For `CC1(C)CC(=O)C2=C(C1)Nc1n[nH]cc1C21CCCNCC1` (centres unmarked) [Compound 889571], the IC50 ([1]; IC50) was > 5000 nM and the IC50 ([2]; IC50) was > 5000 nM.

`O=C1CC(C(F)(F)F)CC2=C1C1(CCOCC1)c1c[nH]nc1N2` (centres unmarked) [Compound 889572] gave an IC50 ([1]; IC50) of 100 to 1000 nM and an IC50 ([2]; IC50) of 100 to 1000 nM.

For `O=C1CC2(CCOC2)CC2=C1C1(CCOCC1)c1c[nH]nc1N2` (centres unmarked) [Compound 889573], the IC50 ([1]; IC50) was ≤ 100 nM and the IC50 ([2]; IC50) was 100 to 1000 nM.
